Values of other authors as cited in patent publication US20160213705A1, “METHOD TO TREAT ONYCHOMYCOSIS BY HYDROXYPROPYL CHITOSAN” (POLICHEM S.A., priority 2013, published 2016).
Several values for one entry are separate records, joined by “and”; a condition that tells them apart may be missing. Equal values may be shown once.

Legend:
onychomycosis [1] = conditions: oral route
onychomycosis [2] = conditions: topical; according to the different vehicles used

Structure (SMILES) | complete cure, proportion of patients (onychomycosis [1]) [%] | cure rate (onychomycosis [2])
CN(C/C=C/C#CC(C)(C)C)Cc1cccc2ccccc12 [terbinafine] | 38 | –
Cc1cc(C2CCCCC2)n(O)c(=O)c1 [ciclopirox] | – | 12.7% and 5.8%
